Data published in patent publication US20260258084A1, “New Peptides as Selective IL-23 Receptor Antagonists” (Sanofi, priority 2022, published 2026).
Positions of bridges follow the written chain, without caps; N, C: chain ends. Non-standard residues stand in square brackets, D forms with d. Residues, ends and D or L forms follow the SMILES beside them. *: point of attachment. 2Nal = N[C@@H](Cc1ccc2ccccc2c1)C(=O)O; αMeL = CC(C)C[C@](C)(N)C(=O)O; Me2NCH2CH2 = CN(C)CC*; Ava = NCCCCC(=O)O

Tests used:
[1] = molecular target: T1, human interleukin-23 receptor (recombinant human IL-23R-Fc chimera) (Homo sapiens, UniProt Q5VWK5); test: Human ELISA IL23/IL23R (assay for specific human IL23R antagonists); format: binding; settings: Table 10; read-out: Human ELISA IL23/IL23R IC50
T1 construct: Fc (IgG Fc fusion)
Summary of the method: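 Plates coated overnight at 4 °C with human IL23 ([…]), blocked, then serially diluted peptides added with recombinant human IL-23R-Fc (0.1 μg/ml final) for 60 min at room temperature. Bound receptor detected with anti-human IgG1-HRP and fluorogenic peroxidase substrate.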

Pepsin = test system: T2, Pepsin; test: Protease stability in simulated gastric fluid (Pepsin-SGF, FaSSGF); format: in vitro ADME; settings: simulated gastric fluid with pepsin (Pepsin-SGF), 60 min, 1 μM peptide, 37° C., read-out: FaSSGF 60 (min), remaining percent of peptide
T2 construct: purchased Merck Millipore
Summary of the method: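 Peptides at 1 μM final in pepsin-containing SGF at 37° C, sampled at 0, 60, 120 and 240 min, quenched with ethanol (0.1% HCOOH). Analysed by LCMS/MS; percent remaining from peak area relative to time 0 (set to 100%).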

[2] = test system: IL-23 induced STAT3 signaling in HEK-Blue™ IL-23 cells; test: IL-23 induced STAT3 signaling in HEK-Blue IL-23 cells (SEAP reporter); format: cell-based; settings: human IL23 0.25 ng/ml, read-out: pSTAT3
Summary of the method: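 HEK-Blue IL-23 cells (10,000/well) pre-incubated 60 min at 37 °C with serially diluted peptides, then stimulated overnight with human IL-23 (0.25 ng/ml final). STAT3-driven SEAP in supernatant detected with QUANTI-Blue after 45 min at RT (OD 620-655 nm); dose-response curves fitted.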

Pancreatin = test: Protease stability in simulated intestinal fluid (Pancreatin-SIF, FaSSIF); format: in vitro ADME; settings: 1 μM peptide, 37° C.
Summary of the method: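 Peptide (1 μM final) was incubated at 37° C in simulated intestinal fluid containing pancreatin (1 mg per 10 mL SIF concentrate). Samples were quenched with ethanol/0.1% HCOOH at 0, 60, 120 and 240 min and analysed by LC-MS/MS. Percent remaining is the peak area relative to time 0 (100%).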

[3] = Chemical stability assessment of peptides (relative purity loss); format: physicochemical; settings: 24 hours at 37° C.
Summary of the method: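 Peptide solutions at 1 mg/ml (purity-corrected) in 1:1 acetonitrile with 50 mM HCl pH 1.2, or 50 mM phosphate pH 6.5 or pH 7.4, held 24 hours at 2° C. and 37° C. Supernatants analysed by UHPLC-UV; relative purity loss taken as percent drop in peak-area purity from 0 to 24 hours at 37° C.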

With `CC(C)C[C@]1(C)NC(=O)[C@H](Cc2ccc3ccccc3c2)NC(=O)[C@H](Cc2ccc(OCCN(C)C)cc2)NC(=O)[C@@H]2CSSC[C@H](NC(=O)CCCCNC(=O)CC[C@@H](C(=O)N[C@@H](CC(N)=O)C(=O)N[C@@H](CC(N)=O)C(N)=O)NC1=O)C(=O)N[C@@H](CC(N)=O)C(=O)N[C@@H]([C@@H](C)O)C(=O)N[C@@H](Cc1c[nH]c3ccccc13)C(=O)N[C@@H](CCC(N)=O)C(=O)N2` [compound 27] ([Ava]CNTWQCY(Me2NCH2CH2)[2Nal][αMeL]ENN-NH2; disulfide 2-7; lactam N-11) the IC50 [1] was 0.4 nM, the remaining at 1 h, 1 µM (Pepsin) was 82% and the IC50 [2] was 1.71 nM. The remaining at 1 h, 1 µM (Pancreatin; 60 min, read-out: FaSSIF 60 (min), remaining percent of peptide) was 81%, the remaining at 2 h, 1 µM (Pancreatin; 120 min, read-out: FaSSIF 120 (min), remaining percent of peptide) was 82% and the remaining at 4 h, 1 µM (Pancreatin; 240 min, read-out: FaSSIF 240 (min), remaining percent of peptide) was 73%. For the same compound, the “Chemical stability (relative purity loss) Buffer pH 1.2” value ([3]; 50 mM HCl pH 1.2 + acetonitrile (1:1)) was 23.8%, the “Chemical stability (relative purity loss) Buffer pH 6.5” value ([3]; 50 mM phosphate buffer pH 6.5 + acetonitrile (1:1)) was 0.0% and the “Chemical stability (relative purity loss) Buffer pH 7.4” value ([3]; 50 mM phosphate buffer pH 7.4 + acetonitrile (1:1)) was 8.7%.
